The nature of series [1]: Selectivity index, ratio of CC50 for cytotoxicity against human HepG2 cells to MIC for antimycobacterial activity against drug susceptible Mycobacterium […]. The class given is toxicity, cell-based. The conditions noted are these: read-out: Selectivity Index.
Series [2] has as its system Mycobacterium kansasii. The series is described as follows: Antimycobacterial activity against drug resistant Mycobacterium kansasii 235/80 assessed as minimal inhibitory concentration required for complete inhibition of mycobacterial growth incubated for 21 days. The class given is functional. The conditions noted are these: 235/80, 504 h, time 21 day.
Series [3] relates to Mycobacterium kansasii. Put plainly: Antimycobacterial activity against drug resistant Mycobacterium kansasii 6509/96 assessed as minimal inhibitory concentration required for complete inhibition of mycobacterial growth incubated for 21 days. Format: functional. The conditions noted are these: 6509/96, 504 h, time 21 day.
The test system of series [4] is HepG2. Put plainly: Cytotoxicity against human HepG2 cells assessed as reduction in cell viability incubated overnight followed by compound washout by MTT assay. Format: cell-based.
For series [5], the system named is Mycobacterium tuberculosis. Put plainly: Antimycobacterial activity against drug susceptible Mycobacterium tuberculosis H37Rv assessed as minimal inhibitory concentration required for complete inhibition of mycobacterial growth incubated for 14 days. The conditions noted are these: 336 h, time 14 day. The class given is functional.
A short description of series [6]: Selectivity index, ratio of CC50 for cytotoxicity against human HepG2 cells to MIC for antimycobacterial activity against drug susceptible Mycobacterium tuberculosis H37Rv. Format: toxicity, cell-based. The conditions noted are these: read-out: Selectivity Index.
Series [7] concerns Mycobacterium avium. Put plainly: Antimycobacterial activity against drug resistant Mycobacterium avium 330/88 assessed as inhibition of mycobacterial growth at 125 uM incubated for 21 days. Format: functional, organism-based. The conditions noted are these: time 21.0 day.
The test system of series [8] is Mycobacterium avium. The series is described as follows: Antimycobacterial activity against drug resistant Mycobacterium avium 330/88 assessed as inhibition of mycobacterial growth at 125 uM incubated for 14 days. Format: functional, organism-based. The conditions noted are these: time 14.0 day.
The test system of series [9] is HepG2. Put plainly: Cytostatic activity in human HepG2 cells assessed as reduction in cell viability incubated overnight followed by compound washout and further incubated for 72 hrs in medium containing serum by MTT assay. The class given is functional, cell-based. The following applies: HepG2, 72 h. In general terms: Formazan colour is commonly taken as a measure of viable cells.

Series [10] deals with Mycobacterium kansasii. Put plainly: Antimycobacterial activity against drug resistant Mycobacterium kansasii 235/80 assessed as minimal inhibitory concentration required for complete inhibition of mycobacterial growth incubated for 7 days. Format: functional. The conditions noted are these: 235/80, 168 h, time 7 day.
Series [11] relates to Mycobacterium kansasii. The series is described as follows: Antimycobacterial activity against drug resistant Mycobacterium kansasii 235/80 assessed as minimal inhibitory concentration required for complete inhibition of mycobacterial growth incubated for 14 days. Format: functional. The following applies: 235/80, 336 h, time 14 day.
Series [12] concerns Mycobacterium kansasii. Put plainly: Antimycobacterial activity against drug resistant Mycobacterium kansasii 6509/96 assessed as minimal inhibitory concentration required for complete inhibition of mycobacterial growth incubated for 14 days. The following applies: 6509/96, 336 h, time 14 day. Format: functional.
Series [13] has as its system Mycobacterium tuberculosis. The series is described as follows: Antimycobacterial activity against drug susceptible Mycobacterium tuberculosis H37Rv assessed as minimal inhibitory concentration required for complete inhibition of mycobacterial growth incubated for 21 days. The class given is functional. The conditions noted are these: 504 h, time 21 day.
Series [14] concerns Mycobacterium kansasii. The series is described as follows: Antimycobacterial activity against drug resistant Mycobacterium kansasii 6509/96 assessed as minimal inhibitory concentration required for complete inhibition of mycobacterial growth incubated for 7 days. Format: functional. The following applies: 6509/96, 168 h, time 7 day.
For series [15], the system named is Mycobacterium avium. Put plainly: Antimycobacterial activity against drug resistant Mycobacterium avium 330/88 assessed as minimal inhibitory concentration required for complete inhibition of mycobacterial growth incubated for 14 days. The conditions noted are these: 330/88, 336 h, time 14 day. Format: functional.
The subject of series [16] is Mycobacterium avium. The series is described as follows: Antimycobacterial activity against drug resistant Mycobacterium avium 330/88 assessed as minimal inhibitory concentration required for complete inhibition of mycobacterial growth incubated for 21 days. The following applies: 330/88, 504 h, time 21 day. Format: functional.

Values after ≈ are worked out from the molar mass of the structure shown. Active and inactive are the calls of the source. The calls are words filed in the database; no cut-off is given here. Some results are limits rather than exact numbers.

`C/C(=N\NC(=O)c1ccncc1)C(=O)Nc1ccc(C(F)(F)F)cc1`: the results for the selectivity ratio in series [1] and in series [6] were over 12.5 and over 1670, respectively. For the same compound, the MIC with Mycobacterium kansasii [2] is 32 µM (≈ 11.2 µg/mL); in the series on Mycobacterium kansasii [3] it was 4 µM (≈ 1.4 µg/mL); in [5], at most 0.03 µM; in the series on Mycobacterium kansasii [10] it was 8 µM (≈ 2.8 µg/mL); with Mycobacterium kansasii [11], 16 µM (≈ 5.6 µg/mL); in the series on Mycobacterium kansasii [12], 4 µM (≈ 1.4 µg/mL). In addition, the results for the MIC (in [13]; with Mycobacterium kansasii [14]) were at most 0.03 µM and 2 µM (≈ 0.701 µg/mL), respectively. The IC50 in the series on HepG2 [4] and with HepG2 [9] was over 50 µM throughout. For the same compound, the outcome with Mycobacterium avium [7] and in the series with Mycobacterium avium [8] was inactive.
As to `C/C(=N\NC(=O)c1ccncc1)C(=O)Nc1ccc(C(F)(F)C(F)(F)C(F)(F)C(F)(F)C(F)(F)C(F)(F)C(F)(F)C(F)(F)F)cc1`, the MIC in the series on Mycobacterium avium [15] was over 1000 µM; with Mycobacterium kansasii [3], over 1000 µM; in series [5] it was 0.25 µM (≈ 0.175 µg/mL); with Mycobacterium avium [16], over 1000 µM; with Mycobacterium kansasii [12], over 1000 µM; in [13], 0.5 µM (≈ 0.35 µg/mL). Moreover, in the series with Mycobacterium kansasii [14], the MIC is over 1000 µM.
Consider `NNC(=O)c1ccncc1` [ISONIAZID], for which the MIC in the series with Mycobacterium avium [15] is over 250 µM; in the series on Mycobacterium kansasii [2], over 250 µM; in the series on Mycobacterium kansasii [3] it was 8 µM (≈ 1.1 µg/mL); in series [5], 0.5 µM (≈ 0.0686 µg/mL); in the series with Mycobacterium kansasii [10], over 250 µM; in the series on Mycobacterium avium [16] it was over 250 µM. For the same compound, the MIC in the series with Mycobacterium kansasii [11] was over 250 µM; with Mycobacterium kansasii [12], 8 µM (≈ 1.1 µg/mL); in series [13], 1 µM (≈ 0.137 µg/mL); in the series on Mycobacterium kansasii [14], 4 µM (≈ 0.549 µg/mL).
Consider `C/C(=N\NC(=O)c1ccncc1)C(=O)Nc1cc(Cl)c(Cl)c(Cl)c1`, for which the MIC is over 250 µM in the series with Mycobacterium avium [15]; 250 µM (≈ 96.4 µg/mL) in the series with Mycobacterium kansasii [2]; 32 µM (≈ 12.3 µg/mL) with Mycobacterium kansasii [3]; 0.5 µM (≈ 0.193 µg/mL) in series [5]; 62.5 µM (≈ 24.1 µg/mL) in the series on Mycobacterium kansasii [10]; over 250 µM in the series with Mycobacterium avium [16]. Also, the MIC with Mycobacterium kansasii [11] stood at 125 µM (≈ 48.2 µg/mL); with Mycobacterium kansasii [12] it was 16 µM (≈ 6.17 µg/mL); in series [13], 1 µM (≈ 0.386 µg/mL); in the series on Mycobacterium kansasii [14] it was 16 µM (≈ 6.17 µg/mL).
With `C/C(=N\NC(=O)c1ccncc1)C(=O)Nc1ccc(Br)cc1`, the MIC with Mycobacterium avium [15] was determined as 250 µM (≈ 90.3 µg/mL); with Mycobacterium kansasii [2], 16 µM (≈ 5.78 µg/mL); with Mycobacterium kansasii [3] it was 16 µM (≈ 5.78 µg/mL); in series [5], 0.06 µM (≈ 0.0217 µg/mL); with Mycobacterium kansasii [10] it was 16 µM (≈ 5.78 µg/mL); in the series on Mycobacterium avium [16] it was 250 µM (≈ 90.3 µg/mL). The MIC was 16 µM (≈ 5.78 µg/mL) with Mycobacterium kansasii [11], 8 µM (≈ 2.89 µg/mL) in the series with Mycobacterium kansasii [12], 0.125 µM (≈ 0.0451 µg/mL) in series [13] and 4 µM (≈ 1.44 µg/mL) in the series on Mycobacterium kansasii [14]. Also, the figures for the selectivity ratio in [1] and in [6] were over 3.12 and over 400, respectively. In addition, the half-maximal inhibitory concentration (IC50) with HepG2 [4] and with HepG2 [9] was over 50 µM throughout.
Turning to `C/C(=N\NC(=O)c1ccncc1)C(=O)Nc1ccc(F)cc1`, the MIC in the series with Mycobacterium avium [15] was over 250 µM; in the series on Mycobacterium kansasii [2] it was 250 µM (≈ 75.1 µg/mL); with Mycobacterium kansasii [3], 8 µM (≈ 2.4 µg/mL); in series [5] it was 0.25 µM (≈ 0.0751 µg/mL); with Mycobacterium kansasii [10], 62.5 µM (≈ 18.8 µg/mL); in the series on Mycobacterium avium [16], over 250 µM. Besides, the MIC in the series on Mycobacterium kansasii [11] was 125 µM (≈ 37.5 µg/mL); in the series with Mycobacterium kansasii [12], 4 µM (≈ 1.2 µg/mL); in series [13], 0.25 µM (≈ 0.0751 µg/mL); with Mycobacterium kansasii [14] it was 2 µM (≈ 0.601 µg/mL). Besides, the figures for the selectivity ratio in series [1] and in series [6] were over 625 and over 200, respectively. Besides, the IC50 in the series on HepG2 [4] and in the series on HepG2 [9] was over 50 µM throughout.
For `C/C(=N\NC(=O)c1ccncc1)C(=O)Nc1ccc(Cl)c(Cl)c1`, the MIC in the series on Mycobacterium avium [15] is over 250 µM; in the series with Mycobacterium kansasii [2], over 250 µM; in the series with Mycobacterium kansasii [3], 16 µM (≈ 5.62 µg/mL); in [5], 0.06 µM (≈ 0.0211 µg/mL); in the series on Mycobacterium kansasii [10] it was over 250 µM; in the series with Mycobacterium avium [16], over 250 µM. Also, the MIC in the series on Mycobacterium kansasii [11] was over 250 µM; in the series on Mycobacterium kansasii [12] it was 8 µM (≈ 2.81 µg/mL); in [13] it was 0.06 µM (≈ 0.0211 µg/mL); with Mycobacterium kansasii [14], 4 µM (≈ 1.4 µg/mL). The selectivity ratio in series [1] is over 3.12; in series [6] it was over 833. The half-maximal inhibitory concentration (IC50) in the series on HepG2 [4] and in the series with HepG2 [9] was over 50 µM each time.
Take `C/C(=N\NC(=O)c1ccncc1)C(=O)Nc1cc(C(F)(F)F)cc(C(F)(F)F)c1`: the minimum inhibitory concentration (MIC) in the series with Mycobacterium avium [15] is over 1000 µM; in the series on Mycobacterium kansasii [3] it was 32 µM (≈ 13.4 µg/mL); in series [5] it was 1 µM (≈ 0.418 µg/mL); in the series on Mycobacterium avium [16] it was over 1000 µM; with Mycobacterium kansasii [12], 32 µM (≈ 13.4 µg/mL); in [13] it was 1 µM (≈ 0.418 µg/mL). The MIC in the series on Mycobacterium kansasii [14] is 32 µM (≈ 13.4 µg/mL).
`C/C(=N\NC(=O)c1ccncc1)C(=O)Nc1ccc(Cl)cc1`: the minimum inhibitory concentration (MIC) in the series on Mycobacterium avium [15] was 250 µM (≈ 79.2 µg/mL); in the series on Mycobacterium kansasii [2], 16 µM (≈ 5.07 µg/mL); in the series with Mycobacterium kansasii [3] it was 16 µM (≈ 5.07 µg/mL); in [5], 0.25 µM (≈ 0.0792 µg/mL); with Mycobacterium kansasii [10], 16 µM (≈ 5.07 µg/mL); with Mycobacterium avium [16] it was 250 µM (≈ 79.2 µg/mL). Further, the MIC was found to be 16 µM (≈ 5.07 µg/mL) in the series on Mycobacterium kansasii [11], 8 µM (≈ 2.53 µg/mL) with Mycobacterium kansasii [12], 0.25 µM (≈ 0.0792 µg/mL) in [13] and 4 µM (≈ 1.27 µg/mL) in the series on Mycobacterium kansasii [14]. Also, the selectivity ratio in series [1] was over 3.12; in series [6] it was over 200. Also, the IC50 in the series on HepG2 [4] and in the series on HepG2 [9] was over 50 µM each time.

A word on the MIC: it is the lowest concentration that inhibits growth of the organism. As a reminder, the IC50 is the midpoint of a concentration-inhibition curve.

(Values after ChEMBL document CHEMBL4831492, “Design and synthesis of 2-(2-isonicotinoylhydrazineylidene)propanamides as InhA inhibitors with high antitubercular activity” (Eur J Med Chem, 2021).)
